{
  "source": "paper PMC12337281",
  "about": "“mTORC1-selective inhibitors rescue cellular phenotypes in TSC iPSC-derived neurons” (Frontiers in Neuroscience, 2025)",
  "system": "TSC2–/– iPSC-derived neurons",
  "assay": "MEA weighted mean firing rate in TSC2–/– iPSC-derived neurons",
  "format": "cell-based, human",
  "excerpt": "TSC2^–/– iPSC-derived cortical neurons were differentiated in two to three replicate batches, defined as independent plating of starting material iPSCs and use of reagents to differentiate iPSCs into neurons. The NGN2-induced cortical neurons were differentiated following previously published methods ([Winden et al., 2019]; [Zhang et al., 2013]) that are also described here. To establish a line of iPSCs expressing the NGN2 vector, on differentiation day - 2, iPSCs were dissociated with Accutase (Innovative Cell Technologies #AT104) and plated as single cells at 90,000 cells/cm^2 in mTeSR-1 media supplemented with 10 μM ROCK inhibitor (Y-27631, Cayman Chemical #10005583), on Geltrex-coated 12-well plates. While iPSCs were routinely cultured with StemFlex (as noted above), the NGN2 differentiation was optimized with mTeSR-1 media, so the switch was made to this media prior to initiating differentiation. One day after re-plating as single cells, on differentiation day - 1, iPSCs were transduced with lentiviral vectors expressing NGN2 and rtTA and 8 μg/ml polybrene (Sigma-Aldrich #TR-1003-G). The lentiviral particles were produced and concentrated at the Viral Core at Boston Children’s Hospital and were added to the culture at an MOI of 5 for each vector. Both plasmids are available at Addgene with the following IDs: 52047 and 20342. […]",
  "data": [
    {"smiles": "CO[C@H]1C[C@@H]2CC[C@@H](C)[C@@](O)(O2)C(=O)C(=O)N2CCCC[C@H]2C(=O)O[C@H]([C@H](C)C[C@@H]2CC[C@@H](O)[C@H](OC)C2)CC(=O)[C@H](C)/C=C(\\C)[C@@H](O)[C@@H](OC)C(=O)[C@H](C)C[C@H](C)/C=C/C=C/C=C/1C", "note": "[Rapamycin, rapamycin]", "values": [
      {"measurement": "IC50", "setting": "Homo sapiens, Neuron, day 23, after 2 weeks treatment until day 21, replicate batch #1", "value": 0.015, "unit": "nM"},
      {"measurement": "Dose at which WMFR was lowered", "setting": "during the 2 weeks treatment window, vs DMSO", "value": "> 0.1", "unit": "nM"}
    ]}
  ]
}
